Experimental data from patent publication US9522935B2, “Commands and method of treating cancer via RHO pathway” (priority 2013, dated 2016).

Assays:
[1] = system: HepG2 (liver cancer cell line); experiment: MTT assay, LD030 on HepG2; type: cell-based; details: Homo sapiens, 48 hours, read-out: inhibition rate on cell growth
Protocol: (§1) MTT assay, a well known method known in the art, was used to analyze anticancer effects of compound LD030 on human cancer cell lines, such as, HepG2 (liver cancer cell line), PancI (pancreatic cancer cell line), NCI-H460 (lung cancer cell line), MCF-7 (breast adenocarcinoma cell line) and SF-268 (brain tumor cell lines). An LD030 solution was diluted gradually to obtain a serial of LD030 solutions with decreasing concentrations, which was used to treat various cancer cell lines mentioned above incubated in separate container. […] For incubating with HepG2 cell line, LD030's concentrations were 0.001 μM, 0.01 μM, 0.1 μM, 1 μM, 10 μM, 100 μM. For PancI cell line, the concentrations were 0.1 μM, 1 μM, 10 μM, 100 μM. For NCI-H460 cell line, the concentrations were 0.001 μM, 0.01 μM, 0.1 μM, 1 μM, 10 μM, 100 μM. For MCF-7 cell line, the concentrations were 0.001 μM, 0.01 μM, 0.1 μM, 1 μM, 10 μM, 100 μM. For SF-268 cell line, the concentrations were 0.001 μM, 0.01 μM, 0.1 μM, 1 μM, 10 μM, 100 μM.

[2] = system: PancI (pancreatic cancer cell line); experiment: MTT assay, LD030 on PancI; type: cell-based; details: Homo sapiens, 48 hours, read-out: inhibition rate on cell growth
Protocol: as §1

[3] = system: NCI-H460 (lung cancer cell line); experiment: MTT assay, LD030 on NCI-H460; type: cell-based; details: Homo sapiens; NCI-H460, 100 μM, 48 hours; read-out: inhibition rate on cell growth
Protocol: as §1

[4] = system: MCF-7 (breast adenocarcinoma cell line); experiment: MTT assay, LD030 on MCF-7; type: cell-based; details: Homo sapiens, MCF7; MCF-7, 100 μM, 48 hours; read-out: inhibition rate on cell growth
Protocol: as §1

[5] = system: allograft pancreatic cancer cell lines; experiment: Allograft pancreatic cancer cell lines in mouse model, tumor size; type: in vivo; details: 0.01 mg/kg intraperitoneal injection, three times a week
Protocol: (§2) LD030's effect on the growth of allograft pancreatic cancer cell lines was further studied as follows: Each mouse model was given 0.01 mg/kg LD030 via intraperitoneal injection, three times a week. […] Extracted from the treated mouse and the control mouse, the phosphorylation-signal transduction and activator of transcription (p-STAT3), phospho-JAK2 (p-JAK2), Bcl-XL, apoptosis protease 3, 9 and GADPH (glyceraldehyde-3-phosphate dehydrogenase, or […]) were subject to protein electrophoresis. […] GADPH was used as an internal reference, the expression of which was basically unchanged.

[6] = system: p-STAT3, p-JAK2, Bcl-XL, apoptosis protease 3, 9; experiment: Protein electrophoresis of extracts from treated allograft mouse; type: in vivo; details: 0.01 mg/kg intraperitoneal injection, three times a week; versus control mouse
Protocol: as §2

[7] = system: HepG2 cells; experiment: Nude mouse model of hepatocellular carcinoma (HepG2), growth rate; type: in vivo, nude mice
Protocol: In contrast, LD30 (1 mg/kg/time, twice a day) reduced the growth rate of HepG2 cells by about 63%, with statistical significance (p<0.05) when compared with the ethanol control.
LD030 was also compared with Nexavar for their effects on the growth rate of HepG2 cells.
A further study was conducted on liver cancer cell line in nude mice (HepG2), where Nexavar's dosage was 30 mg/kg, twice a day and LD030's dosage was 1 mg/kg, twice a day along with a blank control and a combination of LD030 and Nexavar. The result is shown in FIG. 21 where Nr stands for Nexavar. […] When compared with the blank, LD030's effect is statistically significant (p<0.05).

## CC(=O)OC(C)(C)C(=O)CCC(C)C1CC[C@@]2(C)C34CC[C@H]5C(C)(C)[C@@H](O)CC[C@]5(C)C3(CC[C@]12C)O4 (some centres unmarked) [LD030]
[1]
  inhibition at 100 µM: > 80%
[2]
  inhibition at 100 µM: > 80%
[3]
  inhibition at 100 µM: > 80%
[4]
  inhibition at 100 µM: > 80%
[5]
  tumor size versus untreated control mouse: significantly reduced
[6]
  expression of Bcl-XL: significantly reduced
  expression of apoptosis protease 3, 9: significantly increased
  expression of p-JAK2: significantly reduced
  expression of p-STAT3: significantly reduced
[7]; HepG2 in nude mice, LD030 1 mg/kg twice a day alone, FIG. 21
  effect on the tumor cells: inhibitory effect
[7]; nude mouse model, 1 mg/kg, twice a day, versus blank carrier control
  reduction of growth rate of HepG2 cells: about 63%
